Test results from US7125671B2, “Nucleic acid amplification with terminal-phosphate labeled nucleotides” (GE Healthcare Bio-Sciences Corp., priority 2003, dated 2006).

Tests used:
T. ba polymerase = assay: PCR amplification with terminal-phosphate labeled nucleoside polyphosphates in the presence of stabilizing additives (FIG. 6); format: biochemical, Thermococcus barosii; details: 10–25 mM salt; dA4P-Me, dT4P-Me, dC4P-Me, dG4P-FlEt; 0.25 mM MnCl2; M13 DNA; 35 cycles
Method: Polymerase chain reaction (PCR) mixtures (20 μl) contained 25 mM Hepes (pH 8.1), 10 mM KCl, 2 mM MgSO4, 0.25 mM MnCl2, 1 mg/ml bovine serum albumin, 0.01% (v/v) Tween-20 and 10–25 mM salt as shown in FIG. 6. Each sample also contained 20 μm each of dA4P-Me, dT4P-Me, dC4P-Me, 200 μm dG4P-FlEt, 0.006 units/μl BAP, 2 units of T. ba polymerase, 0.1 μm −40 M13 forward primer, 0.1 μm −28 M13 reverse primer and 0.2 ng M13 DNA. In addition to the terminal-phosphate labeled nucleotide, terminal methyl-blocked dNTP's were used instead of normal dNTP's to prevent degradation by BAP (phosphatase). Latter is required for signal generation from dye-polyphosphate after the nucleotide is incorporated into DNA by polymerase. Reactions were carried out for 35 thermal cycles of 90° C., 30 sec.; 55° C., 30 sec.; and 65° C., 300 sec. Reaction products were loaded onto 1.6% agarose gels. The gels were stained with SYBR Gold (Molecular Probes) according to the manufacturers' instructions and scanned at 532 nm using a Typhoon fluorescence scanner (Amersham Biosciences). Gel size markers were a 100 bp ladder (Amersham Biosciences).

[1] = Non-enzymatic hydrolysis of dT4P-DDAO in the presence of MnCl2, effect of other salts (FIG. 5); details: 10 or 25 mM salt; 0.5 mM MnCl2; 25 mM Hepes pH 8.1; 95° C. for 60 minutes
Method: Twenty μl of 25 mM Hepes, pH 8.1, containing 0.5 mM MnCl2, 1 μm dT4P-DDAO and 10 or 25 mM inorganic or organic salt (see FIG. 5) was heated at 95° C. for 60 minutes. 4 μl of each sample was treated with BAP as described above and read on Tecan ultra plate reader. An unheated sample with MnCl2 (water lane) and a heated sample without Hepes and MnCl2 were used as controls. Fluorescence counts were converted into % degradation as described above.

Row | Compound | PCR product formation in the presence of the additive (T. ba polymerase) | stabilization of dT4P-DDAO (% degradation) [1]
1 | [Na+].[Na+].[O]=[W](=[O])([O-])[O-] [sodium tungstate] | PCR product was separated | –
2 | CCCS(=O)(=O)O [propane sulfonate] | – | minimal
3 | sodium vanadate | No product formed | –
4 | O=C(O)CP(=O)(O)O [phosphonoacetate] | No product formed | stabilize the nucleotide
